Several values for one entry are separate records, joined by “and”; a condition that tells them apart may be missing. Equal entries are not always repeated. Entries after “also recorded” stand apart in the source; their conditions may differ.
Tests used:
[1] = Metabolic stability in human liver microsomes; assay type: in vitro ADME; details: pooled liver microsomes
Description: (§1) Metabolic stability in blood and liver microsomes: Fosmetpantotenate or its individual diastereomers (5 μM, n = 2, 37°C) were incubated in mouse, rat, cynomolgus monkey, and human whole blood. Samples (50 μL) were taken at 0, 5, 15, 30, and 60 min. Incubations of fosmetpantotenate or its individual diastereomers (1 μM, n = 2, 37°C) in pooled liver microsomes (0.25 mg protein/mL in 0.1 M phosphate buffer pH 7.4) were initiated with the addition of nicotinamide adenine dinucleotide phosphate (NADPH; 1 mM). Aliquots (100 μL) were obtained at 0, 5, 10, 20, and 40 min and added to 150 μL of 0.1% formic acid in acetonitrile-containing carbamazepine (0.5 μM) as an analytical internal standard, centrifuged, and the supernatants analyzed by LC-MS/MS.
(§2) Bioanalysis for determinations of analyte stability: Samples were analyzed using a benchtop tandem quadrupole detector (TQD) mass spectrometer (Waters Ltd, Centennial Park, Hertfordshire). […] Suitable retention and peak shape with separation of the 2 diastereomers were obtained. The chromatography column was a Phenomenex-Kinetex XB C18 (2.10 x 50 mm; 2.6 μm), with a 0.7 mL/min flow rate and a 2 μL injection volume. […]
(§3) The percent of compound remaining was determined from the MRM area response in each sample relative to that in the T = 0 samples (normalized for internal standard). […]

[2] = tested on: porcine brain endothelial cell (PBEC) co-culture model; assay: In vitro blood-brain barrier permeability (PBEC/rat astrocyte co-culture); details: in words
Description: Permeability studies were performed after 2 days of co-culture with rat astrocytes. […] In each filter used for transport, a paracellular marker was included as an internal control to monitor the integrity of the cell monolayer. The day of the experiment, culture medium was removed and cells on Transwell inserts were pre-incubated for 30 min with Hank's Balanced Salt Solution (HBSS) containing 20 mM Hepes pH 7.4 and 0.1% bovine serum albumin (BSA). […] Aliquots from the basal compartment were taken after 1 h; fluorescence was measured using a fluorescence detector. The permeability coefficient of the total system was calculated as follows: P[cm/s]=Vd×ΔMr/A×Md×Δt Where:
To correct for the contribution of the porous polycarbonate membrane of the filter in the absence of cells, the permeability was also determined for the cell-free system. Contribution of the endothelial cell monolayer to the permeability of the cell and filter system was determined by the following equation: 1/Pe=1/Pt-1/Pf Where the total permeability of the system is denoted as Pt, the cell-free filter as Pf, and the endothelial cell layer alone as Pe. The total resistance of the system towards passage of a substance is composed of 2 resistances in series: that of the cell monolayer and that of the filter; permeability is estimated as 1/resistance [27]. […] Mass balance was determined based on the amount of compound recovered in the donor and receiver chamber at the end of the assay relative to the amount added to the donor chamber at time 0.

[3] = Metabolic stability in rat whole blood; assay type: in vitro ADME; details: for Percentage Remaining: rat whole blood, replicates 1 and 2, listed as Fosmetpantotenate Total
Description: as §1
(§4) Bioanalysis for determinations of analyte stability: Samples were analyzed using a benchtop tandem quadrupole detector (TQD) mass spectrometer (Waters Ltd, Centennial Park, Hertfordshire). […] Suitable retention and peak shape with separation of the 2 diastereomers were obtained. The chromatography column was a Phenomenex-Kinetex XB C18 (2.10 x 50 mm; 2.6 μm), with a 0.7 mL/min flow rate and a 2 μL injection volume. […] The gradient was initiated with 20% B and increased linearly, reaching 40% B at 0.6 min, followed by 50% B at 0.8 min and by 95% B at 0.9 min. Conditions were kept isocratic through 1.2 min, returned to starting conditions (20% B) at 1.25 min, and maintained at 20% B through 1.5 min before the next injection. Since fosmetpantotenate is a mixture of diastereomers which are resolved chromatographically, the fosmetpantotenate MRM area corresponds to the sum of the MRM areas of the individual diastereomers.
(§5) The percent of compound remaining was determined from the MRM area response in each sample relative to that in the T = 0 samples (normalized for internal standard). Natural log plots of the percent compound remaining over time were used to determine the t½ of compound disappearance using the relationship t½ = -0.693/λ, where λ is the slope of the natural logarithm of the percent compound remaining vs time curve.

[4] = Stability in simulated gastric fluid; assay type: in vitro ADME; details: simulated gi fluid; pH 1.2; 3.2 mg/mL pepsin; 10 μM; read-out: half-life (t½) in simulated gastric fluid
Description: Stability in simulated gastric fluid: A stock solution of fosmetpantotenate or its individual diastereomers was prepared in 0.1% formic acid in methanol. Simulated gastric fluid, pH 1.2, was prepared with 2 g/L sodium chloride, 3.2 g/L of pepsin, and 0.7% (v/v) HCl. Gastric buffer, pH 1.2, was prepared containing 2 g/L sodium chloride and 0.7% (v/v) HCl. An appropriate aliquot of fosmetpantotenate or individual diastereomers to yield an initial concentration of 10 μM was added to both fluids, and samples were mixed at ~25°C on an orbital shaker. Aliquots (50 μL) were taken at 0, 2, and 4 h; added to 150 μL dimethyl sulfoxide (DMSO) containing an analytical internal standard; vortexed; and analyzed immediately by LC-MS/MS.
as §4, §5

[5] = Metabolic stability in monkey liver microsomes; assay type: in vitro ADME; details: pooled liver microsomes
Description: as §1, §2, §3

[6] = tested on: shRNA PanK2 knockdown human neuroblastoma IMR32 cells; assay: Intracellular CoA levels in shRNA PanK2 knockdown human neuroblastoma cells; assay type: cell-based; details: for Area Ratio, biological replicates 1-3 / Area Ratio, Mean / CoASH Fold Increase, Mean: Figure 3 data; for Area Ratio, biological replicates 1-3: PANK2-/- cells; for CoASH Fold Increase, Mean: over vehicle (1.00); for CoASH Area ratio / Total CoA Area ratio: Figure 4 data, 1 µM fosmetpantotenate, each line a biological replicate (well), analyzed 3 times
Description: The in vitro model to evaluate the efficacy of fosmetpantotenate and analogs was developed using a human neuroblastoma IMR32 cell line (ATCC) with stable PanK2 knockdown through lentiviral-delivered shRNA [23]. […] Cells were cultured in minimal essential media (MEM; Invitrogen), supplemented with 10% fetal bovine serum, 2 mM glutamine, 1% penicillin-streptomycin, 1 mM sodium pyruvate, 1 mM non-essential amino acids, 1.5 g/L sodium bicarbonate, and 1 μg/mL puromycin. […] At the end of the time period, cells were harvested, counted, collected in a 15 mL falcon tube, and centrifuged at 200xg for 5 min at 4°C.
For all incubations, the supernatant was removed and the cell pellet was resuspended in 10 mL of ice-cold phosphate buffered saline. […] The supernatant (100 μL) was placed in a separate tube and dried under nitrogen at 20°C in the dark. Samples were reconstituted with ammonium acetate buffer (pH 5.1) containing dextrorphan (50 ng/mL) as the internal standard, stirred for 2 min, sonicated in an ultrasonic bath for 1 min, and stirred again for 1 min before liquid chromatography-tandem mass spectrometry (LC-MS/MS) analysis for determination of intracellular CoA levels. Intracellular CoA concentration was calculated considering an intracellular volume of 10^6 cells equal to 2 μL. The measurement of the intracellular volume of cultured cells was performed following the distribution of [^14C]urea and [^14C]mannitol with time.
Coenzyme A determinations: An Agilent 1100 high-performance liquid chromatography (HPLC) system with a CTC PAL autosampler was used. Samples were chromatographed on a Phenomenex Luna C18 column (50 x 2.0 mm; 5 μm), with a 0.2 mL/min flow rate and a […] injection volume in a 5 μL injection loop. The mobile phases were (A) 10 mM ammonium acetate in water and (B) acetonitrile:2-propanol (9:1; v:v). […] A Sciex API 4000 QTrap mass spectrometer, connected to the HPLC system in tandem, with an electrospray ionization source operating in the positive scanning mode, was used for multiple reaction monitoring (MRM). […] The statistical significance of the treatment was determined using a t-test.

[7] = pH 7.4, read-out: intrinsic clearance

COC(=O)CCNC(=O)[C@H](O)C(C)(C)COP(=O)(N[C@@H](C)C(=O)OC)Oc1ccccc1 (mixture of isomers) [Fosmetpantotenate]
half-life at 1 μM ([1]; pH 7.4, 1 μM, NADPH): 21 min
microsomal CLint at 1 μM [1, 7]: 134 µL/min/mg
blood-brain barrier permeability classification [2]: permeable
half-life at 5 μM ([3]; rat blood, 5 μM, 37°C, 60 min): < 5 min
Percentage Remaining ([3]; 5 min): 6% and 1%
Percentage Remaining ([3]; 15 min): 0% and 8%
Percentage Remaining ([3]; 60 min): 0%
half-life at 10 μM [4]: > 600 min
half-life at 1 μM ([5]; pH 7.4, 1 μM, NADPH): 11 min
microsomal CLint at 1 μM [5, 7]: 263 µL/min/mg
change in the level of free CoA ([6]; 1 μM TID for 5 days): little change; also recorded: little effect
Area Ratio, biological replicates 1-3 ([6]; compound conc 12.5 µM): 0.109 and 0.098 and 0.112
Area Ratio, biological replicates 1-3 ([6]; compound conc 25 µM): 0.141 and 0.129 and 0.135
Area Ratio, biological replicates 1-3 ([6]; compound conc 50 µM): 0.159 and 0.189 and 0.167
Area Ratio, biological replicates 1-3 ([6]; compound conc 100 µM): 0.157 and 0.186 and 0.139
Area Ratio, biological replicates 1-3 ([6]; compound conc 200 µM): 0.243 and 0.294 and 0.241
Area Ratio, Mean ([6]; concentration 12.5 µM): 0.081
Area Ratio, Mean ([6]; concentration 25 µM): 0.111
Area Ratio, Mean ([6]; concentration 50 µM): 0.141
Area Ratio, Mean ([6]; concentration 100 µM): 0.127
Area Ratio, Mean ([6]; concentration 200 µM): 0.216
CoASH Fold Increase, Mean ([6]; concentration 25 µM): 1.25
CoASH Fold Increase, Mean ([6]; concentration 50 µM): 2.00
CoASH Fold Increase, Mean ([6]; concentration 100 µM): 2.27
CoASH Fold Increase, Mean ([6]; concentration 200 µM): 2.41
CoASH Area ratio ([6]; Day 1): 0.0013 (2×) and 0.0014 and 0.0011 and 0.0012 (2×) and 0.0018 and 0.0019 (2×)
Total CoA Area ratio ([6]; Day 1): 0.0238 and 0.0248 and 0.0256 and 0.0250 and 0.0258 and 0.0229 and 0.0233 and 0.0235
CoASH Area ratio ([6]; Day 3): 0.0035 and 0.0037 (2×) and 0.0024 and 0.0025 and 0.0026 and 0.0022 and 0.0023 (2×)
Total CoA Area ratio ([6]; Day 3): 0.0360 and 0.0361 and 0.0365 and 0.0359 and 0.0368 and 0.0185 and 0.0353 and 0.0367
CoASH Area ratio ([6]; Day 5): 0.0029 and 0.0031 (2×) and 0.0024 (2×) and 0.0025 and 0.0019 and 0.0020 (2×)
Total CoA Area ratio ([6]; Day 5): 0.0314 and 0.0330 (2×) and 0.0343 and 0.0336 and 0.0342

From PMC5844530, “Fosmetpantotenate (RE-024), a phosphopantothenate replacement therapy for pantothenate kinase-associated neurodegeneration: Mechanism of action and efficacy in nonclinical models” (PLoS ONE, 2018)
